Assay [1] has as its target HPK1 (Homo sapiens, UniProt Q92918). In words: HPK1 Biochemical Assay (ADP-Glo luminescence; low ATP 10 μM or high ATP 200 μM). The conditions noted are these: 2 nM HPK1, 10 μM ATP; read-out: Biochemical Potency (low ATP).
In assay [2] the test system is p-SLP-76 (Ser376) in Jurkat cells. Description: pSLP76 Cellular Assay (AlphaLISA SureFire Ultra p-SLP-76 (Ser376), anti-CD3 activated Jurkat cells). The conditions noted are these: Homo sapiens; Jurkat cells, anti-CD3 stimulation, pSLP76; read-out: Cellular Potency. The class given is cell-based. The method in brief: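 Jurkat cells, serum-starved overnight in Opti-MEM then in HBSS, preincubated 1 h at 37 °C with 22-point 2-fold compound dilutions, then stimulated with anti-CD3 (0.025 mg/ml added solution) for 45 min. Lysate p-SLP-76 (Ser376) measured by AlphaLISA at 570 nm; IC50 from 4-parameter logistic fit.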

Sequence of HPK1 (Q92918 whole entry, species assumed): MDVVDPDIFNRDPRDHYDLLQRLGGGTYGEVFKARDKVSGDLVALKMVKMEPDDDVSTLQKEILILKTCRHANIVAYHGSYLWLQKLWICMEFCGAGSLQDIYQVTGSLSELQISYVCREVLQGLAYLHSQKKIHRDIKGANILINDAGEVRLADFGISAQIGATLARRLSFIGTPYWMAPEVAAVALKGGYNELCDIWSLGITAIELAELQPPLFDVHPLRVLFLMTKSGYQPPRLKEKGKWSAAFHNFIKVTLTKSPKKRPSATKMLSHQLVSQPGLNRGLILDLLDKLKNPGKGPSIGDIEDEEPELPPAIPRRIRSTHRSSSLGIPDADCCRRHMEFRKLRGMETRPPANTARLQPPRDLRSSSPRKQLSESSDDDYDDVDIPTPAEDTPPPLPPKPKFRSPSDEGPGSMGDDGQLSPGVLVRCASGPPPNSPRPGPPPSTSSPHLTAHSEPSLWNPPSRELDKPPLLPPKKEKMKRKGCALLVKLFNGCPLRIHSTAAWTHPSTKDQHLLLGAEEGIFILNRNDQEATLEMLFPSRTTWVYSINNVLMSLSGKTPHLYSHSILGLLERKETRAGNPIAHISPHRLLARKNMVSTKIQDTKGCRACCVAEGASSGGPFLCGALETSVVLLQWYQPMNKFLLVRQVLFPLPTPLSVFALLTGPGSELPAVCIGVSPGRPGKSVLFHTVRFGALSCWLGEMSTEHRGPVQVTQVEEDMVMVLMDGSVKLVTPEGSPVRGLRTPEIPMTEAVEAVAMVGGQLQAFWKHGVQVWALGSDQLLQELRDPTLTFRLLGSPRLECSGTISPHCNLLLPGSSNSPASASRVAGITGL

Consider `CN1C[C@@H]2C[C@H]1CN2c1cccc(Nc2cc3nc(-c4cccc(C#N)c4)sc3cn2)n1` [Example 133, 3-[6-({6-[(1S,4S)-5-Methyl-2,5-diazabicyclo[2.2.1]heptan-2-yl]pyridin-2-yl}amino)-[1,3]thiazolo[5,4-c]pyridin-2-yl]benzonitrile], for which the IC50 in assay [1] is less than 100 nM; in assay [2] it was greater than 5000 nM.
Turning to `Cc1c(-c2nc3cc(Nc4cccc(N5C[C@@H]6C[C@H]5CN6C)n4)ncc3s2)cnc2c1NCCO2` [Example 134, N-(2-{8-Methyl-1H,2H,3H-pyrido[2,3-b][1,4]oxazin-7-yl}-[1,3]thiazolo[5,4-c]pyridin-6-yl)-6-[(1S,4S)-5-methyl-2,5-diazabicyclo[2.2.1]heptan-2-yl]pyridin-2-amine], the IC50 in assay [1] was less than 100 nM; in assay [2], 1000 to 5000 nM.
In the case of `CNC(=O)c1cccc(-c2nc3cc(Nc4cccc(N5C[C@@H]6C[C@H]5CN6C)n4)ncc3s2)c1` [Example 135, N-Methyl-3-[6-({6-[(1S,4S)-5-methyl-2,5-diazabicyclo[2.2.1]heptan-2-yl]pyridin-2-yl}amino)-[1,3]thiazolo[5,4-c]pyridin-2-yl]benzamide], the values for the IC50 in assay [1] and in assay [2] were less than 100 nM and 1000 to 5000 nM, respectively.
For the molecule `CN(C)C(=O)c1cccc(-c2nc3cc(Nc4cccc(N5C[C@@H]6C[C@H]5CN6C)n4)ncc3s2)c1` [Example 137, N,N-Dimethyl-3-[6-({6-[(1S,4S)-5-methyl-2,5-diazabicyclo[2.2.1]heptan-2-yl]pyridin-2-yl}amino)-[1,3]thiazolo[5,4-c]pyridin-2-yl]benzamide], the IC50 in assay [1] is less than 100 nM; in assay [2] it was 100 to 1000 nM.
Regarding `Cc1ccncc1-c1nc2cc(Nc3cccc(N4C[C@@H]5C[C@H]4CN5C)n3)ncc2s1` [Example 139, 6-[(1S,4S)-5-Methyl-2,5-diazabicyclo[2.2.1]heptan-2-yl]-N-[2-(4-methylpyridin-3-yl)-[1,3]thiazolo[5,4-c]pyridin-6-yl]pyridin-2-amine], the IC50 was less than 100 nM in assay [1] and 100 to 1000 nM in assay [2].
In the case of `CN(C)C(=O)c1cccc(-c2nc3cc(Nc4cccc(N5C[C@@H]6C[C@H]5CN6)n4)ncc3s2)c1` [Example 140, 3-[6-({6-[(1S,4S)-2,5-Diazabicyclo[2.2.1]heptan-2-yl]pyridin-2-yl}amino)-[1,3]thiazolo[5,4-c]pyridin-2-yl]-N,N-dimethylbenzamide], the IC50 in assay [1] was less than 100 nM; in assay [2], 100 to 1000 nM.
Take `CS(=O)(=O)c1cccc(-c2nc3cc(Nc4cccc(N5C[C@@H]6C[C@H]5CN6)n4)ncc3s2)c1` [Example 141, 6-[(1S,4S)-2,5-Diazabicyclo[2.2.1]heptan-2-yl]-N-[2-(3-methanesulfonylphenyl)-[1,3]thiazolo[5,4-c]pyridin-6-yl]pyridin-2-amine]: the IC50 in assay [1] is less than 100 nM; in assay [2] it was 100 to 1000 nM.
For the molecule `c1cc(-c2nnco2)cc(-c2nc3cc(Nc4cccc(N5C[C@@H]6C[C@H]5CN6)n4)ncc3s2)c1` [Example 142, 6-[(1S,4S)-2,5-Diazabicyclo[2.2.1]heptan-2-yl]-N-{2-[3-(1,3,4-oxadiazol-2-yl)phenyl]-[1,3]thiazolo[5,4-c]pyridin-6-yl}pyridin-2-amine], the IC50 was less than 100 nM in assay [1] and 1000 to 5000 nM in assay [2].
Take `Cc1cccnc1-c1nc2cc(Nc3cncc(N4C[C@@H]5C[C@H]4CN5)n3)ncc2s1` [Example 144, 6-[(1S,4S)-2,5-Diazabicyclo[2.2.1]heptan-2-yl]-N-[2-(3-methylpyridin-2-yl)-[1,3]thiazolo[5,4-c]pyridin-6-yl]pyrazin-2-amine]: the values for the IC50 in assay [1] and in assay [2] were less than 100 nM and 100 to 1000 nM, respectively.
Consider `Cc1cccnc1-c1nc2cc(Nc3cncc(N4C[C@@H]5C[C@H]4CN5C)n3)ncc2s1` [Example 145, 6-[(1S,4S)-5-Methyl-2,5-diazabicyclo[2.2.1]heptan-2-yl]-N-[2-(3-methylpyridin-2-yl)-[1,3]thiazolo[5,4-c]pyridin-6-yl]pyrazin-2-amine], for which the results for the IC50 in assay [1] and in assay [2] were less than 100 nM and 100 to 1000 nM, respectively.

For the origin of these results see US12649751B2 (Arcus Biosciences, Inc., priority 2022, dated 2026).
